Results from US7608599B2, “Antiviral phosphoramidates” (Roche Palo Alto LLC, priority 2005, dated 2009).

system: HIV; assay: not given; conditions: background, Ohrui et al.; cited from earlier work

Question: With `C#CC1(CO)OC(n2ccc(N)nc2=O)C(O)C1O` (stereo not shown) [Compound 6a, 4-Ethynyl-cytarabine] as the molecule, how does the anti-HIV activity read?
Answer: good anti-HIV activity

Question: With `C#C[C@]1(CO)O[C@@H](n2cc(C)c(=O)[nH]c2=O)[C@@H](O)[C@@H]1O` [Compound 6b] as the molecule, how does the anti-HIV activity read?
Answer: inactive

system: HCV replicon RNA replication (Renilla luciferase HCV replicon cells 2209-23); assay: Renilla luciferase assay (HCV replicon); assay type: cell-based; conditions: 72 h; Huh7-derived replicon cell line 2209-23, three days incubation, luciferase readout

Question: For `C[C@H](NP(=O)(OC[C@@]1(N=[N+]=[N-])O[C@@H](n2ccc(=O)[nH]c2=O)[C@H](O)[C@@H]1O)Oc1ccccc1)C(=O)OCc1ccccc1` (stereo partly drawn) [Compound I-13, (S)-2-{[(2R,3S,4R,5R)-2-Azido-5-(2,4-dioxo-3,4-dihydro-2H-pyrimidin-1-yl)-3,4-dihydroxy-tetrahydro-furan-2-ylmethoxy]-phenoxy-phosphorylamino}-propionic acid benzyl ester], which IC50 is on record?
Answer: 754 nM

Question: For `CC(C)OC(=O)[C@H](C)NP(=O)(OC[C@@]1(N=[N+]=[N-])O[C@@H](n2ccc(=O)[nH]c2=O)[C@H](O)[C@@H]1O)Oc1ccccc1` (stereo partly drawn) [Compound I-14, (S)-2-{[(2R,3S,4R,5R)-2-Azido-5-(2,4-dioxo-3,4-dihydro-2H-pyrimidin-1-yl)-3,4-dihydroxy-tetrahydro-furan-2-ylmethoxy]-phenoxy-phosphorylamino}-propionic acid isopropyl ester], which IC50 is on record?
Answer: 864 nM

Question: For `CCC(C)OC(=O)[C@H](C)NP(=O)(OC[C@@]1(N=[N+]=[N-])O[C@@H](n2ccc(N)nc2=O)[C@H](O)[C@@H]1O)Oc1ccccc1` (stereo partly drawn) [Compound I-28, (S)-2-{[(2R,3S,4R,5R)-5-(4-Amino-2-oxo-2H-pyrimidin-1-yl)-2-azido-3,4-dihydroxy-tetrahydro-furan-2-ylmethoxy]-phenoxy-phosphorylamino}-propionic acid sec-butyl ester], which IC50 is on record?
Answer: 615 nM

Question: With `CCOC(=O)[C@H](C)NP(=O)(OC[C@@]1(N=[N+]=[N-])O[C@@H](n2ccc(N)nc2=O)[C@H](O)[C@@H]1O)Oc1ccccc1` (stereo partly drawn) [Compound I-34, (S)-2-{[(2R,3S,4R,5R)-5-(4-Amino-2-oxo-2H-pyrimidin-1-yl)-2-azido-3,4-dihydroxy-tetrahydro-furan-2-ylmethoxy]-phenoxy-phosphorylamino}-propionic acid ethyl ester] as the molecule, how does the IC50 read?
Answer: 382 nM

Question: With `CC(C)OC(=O)[C@H](C)NP(=O)(OC[C@@]1(N=[N+]=[N-])O[C@@H](n2ccc(N)nc2=O)[C@H](O)[C@@H]1O)Oc1ccccc1` (stereo partly drawn) [Compound I-35, (S)-2-{[(2R,3S,4R,5R)-5-(4-Amino-2-oxo-2H-pyrimidin-1-yl)-2-azido-3,4-dihydroxy-tetrahydro-furan-2-ylmethoxy]-phenoxy-phosphorylamino}-propionic acid isopropyl ester] as the molecule, how does the IC50 read?
Answer: 991 nM
